Literature values as cited in paper PMC6243681 (Chemical Science, 2018).

THRPPMWSPVWP
stability in serum / to serum proteases: low stability
